The source made the active and inactive calls. No cut-off for these calls is given here.
Legend:
Cannabinoid receptor 1 [1] = molecular target: T1, Cannabinoid receptor 1 (Homo sapiens, UniProt P21554); assay: Agonist activity at human CB1 receptor expressing CHO cells co-expressing Galpha16 at 10 uM by calcium mobilization assay; format: functional, cell-based; details: filed as agonist
Cannabinoid receptor 1 [2] = molecular target: T1, Cannabinoid receptor 1; assay: Induction of receptor desensitization at human CB1 receptor expressing CHO cells co-expressing Galpha16 at 10 uM followed by washing with HBSS buffer upon incubation for 10 mins and restimulated with CP55940 by calcium mobilization assay; format: functional, cell-based; details: filed as agonist
Cannabinoid receptor 1 [3] = molecular target: T1, Cannabinoid receptor 1; assay: Agonist activity at human CB1 receptor expressed in HEK293 cells after 24 hrs by luciferase reporter gene assay based Tango beta-arrestin recruitment method; format: cell-based
[4] = molecular target: Prostaglandin E2 receptor EP4 subtype (Homo sapiens) (UniProt P35408); assay: Agonist activity at EP4 (unknown origin) at 10 uM
Prostaglandin E2 receptor EP4 subtype (Homo sapiens), sequence (P35408 whole entry): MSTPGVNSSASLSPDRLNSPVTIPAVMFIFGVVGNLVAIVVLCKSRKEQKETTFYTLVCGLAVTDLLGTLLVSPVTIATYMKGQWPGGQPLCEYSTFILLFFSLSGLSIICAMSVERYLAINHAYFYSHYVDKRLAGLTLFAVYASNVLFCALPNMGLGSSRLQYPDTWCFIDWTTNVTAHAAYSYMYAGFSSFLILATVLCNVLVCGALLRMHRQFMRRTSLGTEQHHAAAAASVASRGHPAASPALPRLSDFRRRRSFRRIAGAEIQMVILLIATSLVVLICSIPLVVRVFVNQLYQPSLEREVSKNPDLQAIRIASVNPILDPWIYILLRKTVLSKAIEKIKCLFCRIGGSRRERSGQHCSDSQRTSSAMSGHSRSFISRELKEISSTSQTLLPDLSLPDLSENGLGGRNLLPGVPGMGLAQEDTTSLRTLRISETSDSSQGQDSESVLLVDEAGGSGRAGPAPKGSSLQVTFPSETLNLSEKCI

[5] = Volume of distribution in BALB/c mouse at 5 mg/kg, po measured during 0.083 to 24 hrs post dose by LC-MS/MS analysis; format: ADME, organism-based; details: in vivo, time 0.083-24 hrs
Cannabinoid receptor 2 [6] = molecular target: T2, Cannabinoid receptor 2 (Homo sapiens, UniProt P34972); assay: Agonist activity at human CB2 receptor expressing CHO cells co-expressing Galpha16 by calcium mobilization assay; format: functional, cell-based
T2 sequence (P34972 whole entry): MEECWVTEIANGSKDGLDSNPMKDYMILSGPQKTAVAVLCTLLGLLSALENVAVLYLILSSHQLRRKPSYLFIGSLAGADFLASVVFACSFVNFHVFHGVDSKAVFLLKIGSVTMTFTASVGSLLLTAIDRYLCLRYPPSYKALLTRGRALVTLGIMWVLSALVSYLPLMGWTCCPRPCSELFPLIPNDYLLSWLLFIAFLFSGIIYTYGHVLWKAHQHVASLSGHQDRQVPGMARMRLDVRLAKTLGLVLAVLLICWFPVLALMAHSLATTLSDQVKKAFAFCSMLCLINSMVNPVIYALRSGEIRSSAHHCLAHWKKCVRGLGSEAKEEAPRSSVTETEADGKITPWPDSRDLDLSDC

[7] = molecular target: Prostaglandin E2 receptor EP4 subtype (Homo sapiens) (UniProt P35408); assay: Antagonist activity at EP2 (unknown origin) at 10 uM
[8] = molecular target: T3, Glucose-dependent insulinotropic receptor (Homo sapiens) (UniProt Q8TDV5); assay: Antagonist activity at GPR119 (unknown origin) at 10 uM
T3 sequence (whole entry): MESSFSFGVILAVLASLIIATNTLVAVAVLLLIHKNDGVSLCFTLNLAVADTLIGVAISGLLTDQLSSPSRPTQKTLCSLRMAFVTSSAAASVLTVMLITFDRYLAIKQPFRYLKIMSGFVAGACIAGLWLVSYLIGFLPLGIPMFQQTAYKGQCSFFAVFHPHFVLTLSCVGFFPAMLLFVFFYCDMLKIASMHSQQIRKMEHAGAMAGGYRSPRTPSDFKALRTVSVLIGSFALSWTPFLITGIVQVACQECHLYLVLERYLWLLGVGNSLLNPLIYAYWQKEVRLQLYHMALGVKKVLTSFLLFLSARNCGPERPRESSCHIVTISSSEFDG

[9] = AUC (0 to infinity) in BALB/c mouse at 5 mg/kg, po measured during 0.083 to 24 hrs post dose by LC-MS/MS analysis; format: ADME, organism-based; set-up: route oral, dose 5 mg/kg, time 0.083-24 hrs; details: in vivo
Cannabinoid receptor 2 [10] = molecular target: T2, Cannabinoid receptor 2; assay: Agonist activity at human CB2 receptor expressed in HEK293 cells after 24 hrs by luciferase reporter gene assay based Tango beta-arrestin recruitment method; format: cell-based
[11] = Half life in BALB/c mouse at 5 mg/kg, po measured during 0.083 to 24 hrs post dose by LC-MS/MS analysis; format: ADME, organism-based; details: in vivo, time 0.083-24 hrs
Mus musculus [12] = assay: Antifibrotic activity in BALB/c mouse model of BLM-induced systemic sclerosis assessed as reduction in dermal pathological symptoms at 1 to 5 mg/kg, sc dosed once daily for 4 weeks by H and E staining based analysis; format: functional, organism-based; details: dose 1-5 mg/kg
Cannabinoid receptor 1 [13] = molecular target: T1, Cannabinoid receptor 1; assay: Agonist activity at human CB1 receptor expressing CHO cells co-expressing Galpha16 by calcium mobilization assay; format: functional, cell-based
Mus musculus [14] = assay: Antifibrotic activity in BALB/c mouse model of BLM-induced systemic sclerosis assessed as reduction in alpha-SMA expression at 1 to 5 mg/kg, sc dosed once daily for 4 weeks by immunohistochemical analysis; format: functional, organism-based; details: dose 1-5 mg/kg
[15] = AUC (0 to infinity) in BALB/c mouse at 1 mg/kg, iv measured during 0.083 to 24 hrs post dose by LC-MS/MS analysis; format: ADME, organism-based; set-up: route intravenous, time lower 0.083 hrs, dose 1 mg/kg, time upper 24 hrs; details: in vivo

T1 sequence (P21554 whole entry): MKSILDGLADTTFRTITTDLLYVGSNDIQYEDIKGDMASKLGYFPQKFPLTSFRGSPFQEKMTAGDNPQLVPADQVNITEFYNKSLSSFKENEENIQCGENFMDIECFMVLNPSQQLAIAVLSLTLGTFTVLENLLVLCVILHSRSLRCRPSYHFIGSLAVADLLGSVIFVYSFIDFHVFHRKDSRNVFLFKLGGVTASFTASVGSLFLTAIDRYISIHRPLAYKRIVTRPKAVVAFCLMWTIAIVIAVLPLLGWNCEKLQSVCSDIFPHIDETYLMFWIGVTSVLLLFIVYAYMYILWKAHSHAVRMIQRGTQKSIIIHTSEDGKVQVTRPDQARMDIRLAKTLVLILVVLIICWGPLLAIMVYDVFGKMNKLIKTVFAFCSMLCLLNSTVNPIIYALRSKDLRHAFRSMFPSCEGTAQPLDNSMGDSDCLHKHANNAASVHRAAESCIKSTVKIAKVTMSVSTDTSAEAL

In the case of `CC(C)(CO)NC(=O)c1cc(C(C)(C)C)n(-c2ccc(C(F)(F)F)cn2)n1`, the Activity (Cannabinoid receptor 1 [1]) is reported as “Active”, the Activity (Cannabinoid receptor 1 [2]) is reported as “Active” and the EC50 (Cannabinoid receptor 1 [3]) is reported as > 10000 nM. The Activity [4] was “inactive”, the Vd [5] was 9.2 L/kg and the EC50 (Cannabinoid receptor 2 [6]) was 15.2 nM. The Activity [7] was “inactive”, the Activity [8] was “inactive” and the AUC(0-inf) [9] was 1670 ng·h/mL. The EC50 (Cannabinoid receptor 2 [10]) was 562 nM, the half-life [11] was 2.18 h and the Activity (Mus musculus [12]) was “Active”. The EC50 (Cannabinoid receptor 1 [13]) was 1840 nM, the Activity (Mus musculus [14]) was “Active” and the AUC(0-inf) [15] was 422 ng·h/mL.

— ChEMBL document CHEMBL4765487, “From a Designer Drug to the Discovery of Selective Cannabinoid Type 2 Receptor Agonists with Favorable Pharmacokinetic Profiles for the Treatment of Systemic Sclerosis” (J Med Chem, 2021)
